Laboratory results: ChEMBL document CHEMBL1201862, “PubChem BioAssay data set” (2004)
Calls of active or inactive are those of the source.

Assays:
[1] = A cytotoxicity screen of small molecule inhibitors of the PhoP region in Salmonella typhi identified in the primary screen. [Related pubchem assays: 1850, 1864, 1985 ]; assay type: functional
[2] = target: Voltage-gated inwardly rectifying potassium channel KCNH2 (Homo sapiens, UniProt Q12809); details: Potency;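 note: confirmatory quantitative high-throughput screen measuring inhibition of hERG channel activity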
[3] = target: Dual specificity tyrosine-phosphorylation-regulated kinase 1A (Rattus norvegicus, UniProt Q63470); assay type: biochemical, Homo sapiens
[4] = Trypanosoma cruzi growth suppression in host cells – NIH3T3 host cells, beta-gal luminescence, confirmation (AID 2044); assay type: functional, cell-based;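 note: intracellular parasites grown in NIH/3T3 mouse fibroblasts as host cells; luminescent beta-galactosidase reporter signal from transgenic T. cruzi replicating inside host cells; inhibitors lower the luminescence signal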
[5] = NIH3T3 cell viability loss – ATP luminescence, mouse fibroblasts, counter-screen, dose response (AID 2010); assay type: functional, cell-based;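 note: cells exposed to compound for about 90 hours before reading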
Nonstructural protein 1 = Nonstructural protein 1 (Influenza A virus, UniProt Q194T2); assay type: functional, Influenza A virus (A/California/07/2009(H1N1))
[6] = target: T1, Histone-lysine N-methyltransferase NSD2 (Homo sapiens, UniProt O96028); assay type: biochemical
T1 sequence (O96028 whole entry): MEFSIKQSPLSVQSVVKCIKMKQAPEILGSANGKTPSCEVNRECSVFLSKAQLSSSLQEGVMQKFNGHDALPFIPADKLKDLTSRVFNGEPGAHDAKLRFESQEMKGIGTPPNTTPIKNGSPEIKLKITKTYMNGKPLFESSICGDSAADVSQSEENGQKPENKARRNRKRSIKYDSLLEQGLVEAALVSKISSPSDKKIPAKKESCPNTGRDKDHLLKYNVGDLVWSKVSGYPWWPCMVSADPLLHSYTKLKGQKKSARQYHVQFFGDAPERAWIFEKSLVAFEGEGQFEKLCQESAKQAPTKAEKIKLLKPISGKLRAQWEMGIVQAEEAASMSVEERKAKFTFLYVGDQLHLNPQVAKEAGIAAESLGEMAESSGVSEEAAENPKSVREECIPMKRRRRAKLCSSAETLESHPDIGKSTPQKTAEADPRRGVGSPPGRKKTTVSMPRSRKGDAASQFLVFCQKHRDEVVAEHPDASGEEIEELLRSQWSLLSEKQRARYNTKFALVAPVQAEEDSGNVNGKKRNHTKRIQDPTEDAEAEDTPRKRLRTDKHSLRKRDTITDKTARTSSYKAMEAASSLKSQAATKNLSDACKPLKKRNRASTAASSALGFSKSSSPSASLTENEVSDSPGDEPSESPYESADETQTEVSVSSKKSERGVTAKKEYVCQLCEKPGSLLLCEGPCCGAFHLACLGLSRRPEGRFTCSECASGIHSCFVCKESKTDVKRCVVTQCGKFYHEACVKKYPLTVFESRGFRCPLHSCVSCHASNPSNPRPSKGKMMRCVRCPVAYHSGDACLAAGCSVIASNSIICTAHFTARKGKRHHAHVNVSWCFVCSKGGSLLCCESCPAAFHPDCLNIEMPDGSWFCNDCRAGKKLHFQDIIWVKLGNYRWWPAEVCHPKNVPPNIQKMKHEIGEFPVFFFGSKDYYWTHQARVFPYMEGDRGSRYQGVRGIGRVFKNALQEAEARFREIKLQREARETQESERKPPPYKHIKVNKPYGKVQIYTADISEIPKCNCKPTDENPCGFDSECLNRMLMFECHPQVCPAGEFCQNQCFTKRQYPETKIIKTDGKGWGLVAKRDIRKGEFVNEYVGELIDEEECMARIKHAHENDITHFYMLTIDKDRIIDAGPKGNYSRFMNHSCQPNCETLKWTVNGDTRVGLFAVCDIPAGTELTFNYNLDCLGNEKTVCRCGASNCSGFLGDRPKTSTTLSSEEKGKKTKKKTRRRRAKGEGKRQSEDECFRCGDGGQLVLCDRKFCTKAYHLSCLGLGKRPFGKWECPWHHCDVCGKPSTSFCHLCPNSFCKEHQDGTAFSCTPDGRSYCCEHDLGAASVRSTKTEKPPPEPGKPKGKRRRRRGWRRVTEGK

[7] = target: T2, Adenosylmethionine-8-amino-7-oxononanoate aminotransferase (Mycobacterium tuberculosis, UniProt P9WQ81); experiment: Mycobacterium tuberculosis BioA enzyme inhibitor Measured in Biochemical System Using Plate Reader - 2163-02_Inhibitor_Dose_CherryPick_Activity.; assay type: functional, Mycobacterium tuberculosis UT205
T2 sequence (P9WQ81 whole entry): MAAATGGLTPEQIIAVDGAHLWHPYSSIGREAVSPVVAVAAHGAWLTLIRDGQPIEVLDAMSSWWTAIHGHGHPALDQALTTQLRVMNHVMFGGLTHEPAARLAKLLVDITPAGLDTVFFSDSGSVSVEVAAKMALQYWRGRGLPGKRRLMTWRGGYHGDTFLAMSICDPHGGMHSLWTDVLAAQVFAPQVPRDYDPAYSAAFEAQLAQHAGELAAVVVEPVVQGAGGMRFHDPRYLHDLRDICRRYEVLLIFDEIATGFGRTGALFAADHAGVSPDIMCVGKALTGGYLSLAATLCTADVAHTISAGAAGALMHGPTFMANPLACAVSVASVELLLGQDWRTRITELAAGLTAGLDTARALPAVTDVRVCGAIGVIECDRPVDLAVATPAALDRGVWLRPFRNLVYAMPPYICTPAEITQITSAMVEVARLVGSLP

Cytochrome P450 3A4 = Cytochrome P450 3A4 (Homo sapiens, UniProt P08684); details: Potency;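 note: confirmatory qHTS run detecting inhibitors and substrates of CYP3A4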
[8] = target: Beta-2 adrenergic receptor (Homo sapiens, UniProt P07550); experiment: ADRB2 activation measured by internalization – cell-based, FAP fluorogen, flow cytometry, cherry pick 1, dose response (AID 588763); assay type: functional
Paired box protein Pax-8 = Paired box protein Pax-8 (Homo sapiens, UniProt Q06710); experiment: PAX8 transcriptional activity inhibition in RMG-I – RMG-I cells, luciferase, cherry-pick, dose response (AID 687027); assay type: functional, cell-based;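 note: luciferase reporter driven by Pax8 target thyroperoxidase promoter measured by SteadyGlo luminescence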
[9] = OVCAR8 cell viability loss – plate reader, dry powder samples, PAX8 project, dose response (AID 743197); assay type: functional, cell-based; details: OVCAR-8
[10] = IGROV1 cell killing – plate reader, dry powder samples, PAX8 inhibitor project, dose response (AID 743043); assay type: functional, cell-based; details: IGROV-1
[11] = OVCAR-3 cell viability loss – plate reader, dry powder samples, PAX8 inhibitor project, dose response (AID 743044); assay type: functional, cell-based
[12] = NIH-3T3 fibroblast cytotoxicity, dose response, cytotoxicity control, cell-based, fluorescence, Alamar Blue, secondary assay (AID 2327); assay type: functional;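 note: NIH-3T3 mouse fibroblasts cultured with fluconazole at 8 µg/mL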
[13] = fluconazole-exposed Candida albicans growth modulators – fluorescence, retest, confirmation (AID 2467); assay type: functional, cell-based
[14] = target: T3, Voltage-gated N-type calcium channel alpha-1B subunit/Amyloid beta A4 precursor protein-binding family A member 1 (Homo sapiens, UniProt Q00975+Q02410); assay type: protein assay
[15] = target: T3, Voltage-gated N-type calcium channel alpha-1B subunit/Amyloid beta A4 precursor protein-binding family A member 1; assay type: protein assay; remark: listed apart in the source
[16] = target: Heat shock protein HSP 90-alpha (Homo sapiens, UniProt P07900); assay type: functional, organism-based
[17] = target: T4, Short transient receptor potential channel 4 (Mus musculus, UniProt Q9QUQ5); experiment: calcium entry via TRPC4 opening agents – cell-based, HEK293 TRPC4/mu-opioid, Fluo-4 calcium, dose response (AID 434937); assay type: functional
T4 sequence (Q9QUQ5 whole entry): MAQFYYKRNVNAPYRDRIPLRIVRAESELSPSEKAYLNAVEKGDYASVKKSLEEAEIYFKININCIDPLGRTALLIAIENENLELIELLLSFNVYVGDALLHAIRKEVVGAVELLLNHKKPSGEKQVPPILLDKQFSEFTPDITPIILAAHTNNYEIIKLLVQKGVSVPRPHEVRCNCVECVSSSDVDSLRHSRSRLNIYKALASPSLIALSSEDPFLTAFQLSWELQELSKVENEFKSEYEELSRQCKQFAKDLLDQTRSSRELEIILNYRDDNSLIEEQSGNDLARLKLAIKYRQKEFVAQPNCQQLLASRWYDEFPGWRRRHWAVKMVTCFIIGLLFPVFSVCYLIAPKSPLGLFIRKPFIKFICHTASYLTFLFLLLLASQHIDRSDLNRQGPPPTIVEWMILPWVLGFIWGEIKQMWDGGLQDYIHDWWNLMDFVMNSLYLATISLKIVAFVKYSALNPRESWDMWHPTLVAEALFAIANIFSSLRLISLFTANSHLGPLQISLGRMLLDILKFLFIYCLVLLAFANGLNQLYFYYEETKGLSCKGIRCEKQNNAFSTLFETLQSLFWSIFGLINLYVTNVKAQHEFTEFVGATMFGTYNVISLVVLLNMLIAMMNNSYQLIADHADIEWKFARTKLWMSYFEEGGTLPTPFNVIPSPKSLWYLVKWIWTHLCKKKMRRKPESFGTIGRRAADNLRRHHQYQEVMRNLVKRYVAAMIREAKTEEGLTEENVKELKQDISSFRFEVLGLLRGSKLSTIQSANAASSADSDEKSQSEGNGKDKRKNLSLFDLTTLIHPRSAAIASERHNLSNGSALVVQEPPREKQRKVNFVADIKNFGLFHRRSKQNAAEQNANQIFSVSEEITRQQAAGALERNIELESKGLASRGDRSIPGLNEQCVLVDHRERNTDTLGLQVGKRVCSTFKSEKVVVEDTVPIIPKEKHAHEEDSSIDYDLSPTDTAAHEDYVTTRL

HEK293 [18] = experiment: inhibition of NOD1-driven NF-kB reporter – cell-based, luminescence, uHTS, primary screen (AID 1578); assay type: functional; details: Homo sapiens
HEK293 [19] = experiment: cells; assay type: functional, cell-based; details: Homo sapiens
HEK293 [20] = experiment: NOD2 signaling inhibitors in MDP-stimulated cells, cell-based, uHTS, luminescence (AID 2001); assay type: functional; details: Homo sapiens
HEK293 [21] = experiment: cells; assay type: functional, cell-based; details: Homo sapiens; remark: listed apart in the source

Sequence of Paired box protein Pax-8 (Q06710 whole entry): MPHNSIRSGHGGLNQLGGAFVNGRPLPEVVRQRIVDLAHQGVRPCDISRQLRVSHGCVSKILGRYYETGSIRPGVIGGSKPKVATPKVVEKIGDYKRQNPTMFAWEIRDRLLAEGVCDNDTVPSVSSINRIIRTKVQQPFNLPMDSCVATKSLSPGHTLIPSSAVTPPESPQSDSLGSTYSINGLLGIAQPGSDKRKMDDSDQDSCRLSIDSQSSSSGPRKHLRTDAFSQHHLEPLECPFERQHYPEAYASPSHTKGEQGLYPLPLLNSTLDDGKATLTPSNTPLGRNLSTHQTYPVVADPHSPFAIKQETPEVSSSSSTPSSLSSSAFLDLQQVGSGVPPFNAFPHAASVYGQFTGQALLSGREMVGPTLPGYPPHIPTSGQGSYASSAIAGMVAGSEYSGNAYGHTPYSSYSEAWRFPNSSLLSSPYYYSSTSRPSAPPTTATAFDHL
Sequence of Cytochrome P450 3A4 (P08684 whole entry): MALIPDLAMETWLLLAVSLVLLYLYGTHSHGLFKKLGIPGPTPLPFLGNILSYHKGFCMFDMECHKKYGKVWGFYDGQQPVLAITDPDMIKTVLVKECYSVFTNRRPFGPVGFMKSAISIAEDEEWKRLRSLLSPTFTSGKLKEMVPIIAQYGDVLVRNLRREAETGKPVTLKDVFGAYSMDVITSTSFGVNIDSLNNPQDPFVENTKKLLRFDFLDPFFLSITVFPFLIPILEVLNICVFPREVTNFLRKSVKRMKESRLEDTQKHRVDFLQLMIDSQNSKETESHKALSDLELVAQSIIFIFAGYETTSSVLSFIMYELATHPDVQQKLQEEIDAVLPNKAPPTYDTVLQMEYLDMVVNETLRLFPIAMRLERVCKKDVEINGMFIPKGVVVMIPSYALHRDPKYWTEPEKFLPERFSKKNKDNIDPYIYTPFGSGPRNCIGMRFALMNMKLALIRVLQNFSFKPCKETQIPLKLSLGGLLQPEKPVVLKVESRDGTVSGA
Sequence of Voltage-gated inwardly rectifying potassium channel KCNH2 (Q12809 whole entry): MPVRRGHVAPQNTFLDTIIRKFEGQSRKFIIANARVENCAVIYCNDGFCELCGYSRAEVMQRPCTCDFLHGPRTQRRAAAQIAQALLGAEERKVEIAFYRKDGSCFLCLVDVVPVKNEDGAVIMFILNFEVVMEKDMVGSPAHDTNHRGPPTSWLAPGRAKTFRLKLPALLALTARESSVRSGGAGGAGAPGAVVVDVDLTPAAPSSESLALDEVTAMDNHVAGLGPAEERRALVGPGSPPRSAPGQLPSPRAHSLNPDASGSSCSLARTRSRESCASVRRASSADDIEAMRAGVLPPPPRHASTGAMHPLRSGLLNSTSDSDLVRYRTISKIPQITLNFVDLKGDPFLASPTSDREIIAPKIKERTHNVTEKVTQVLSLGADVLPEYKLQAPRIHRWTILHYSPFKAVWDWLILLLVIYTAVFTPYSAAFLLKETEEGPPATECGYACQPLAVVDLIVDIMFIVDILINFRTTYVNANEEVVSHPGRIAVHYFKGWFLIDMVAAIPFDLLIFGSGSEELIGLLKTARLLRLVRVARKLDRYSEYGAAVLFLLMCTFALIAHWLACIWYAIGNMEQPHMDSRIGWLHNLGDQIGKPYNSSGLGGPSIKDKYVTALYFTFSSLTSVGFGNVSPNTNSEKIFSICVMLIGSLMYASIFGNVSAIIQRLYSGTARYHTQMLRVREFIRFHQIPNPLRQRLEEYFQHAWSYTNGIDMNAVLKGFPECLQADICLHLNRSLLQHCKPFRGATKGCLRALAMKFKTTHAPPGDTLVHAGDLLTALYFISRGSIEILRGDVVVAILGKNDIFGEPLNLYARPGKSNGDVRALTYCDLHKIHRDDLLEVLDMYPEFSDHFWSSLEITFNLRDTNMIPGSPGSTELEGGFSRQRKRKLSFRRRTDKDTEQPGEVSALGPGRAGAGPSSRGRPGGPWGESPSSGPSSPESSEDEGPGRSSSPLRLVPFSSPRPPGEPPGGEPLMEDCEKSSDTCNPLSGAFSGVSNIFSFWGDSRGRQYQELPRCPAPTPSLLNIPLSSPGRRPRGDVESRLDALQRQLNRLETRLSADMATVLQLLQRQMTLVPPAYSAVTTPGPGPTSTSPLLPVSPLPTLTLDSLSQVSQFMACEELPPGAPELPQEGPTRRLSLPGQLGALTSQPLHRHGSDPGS
Sequence of Beta-2 adrenergic receptor (P07550 whole entry): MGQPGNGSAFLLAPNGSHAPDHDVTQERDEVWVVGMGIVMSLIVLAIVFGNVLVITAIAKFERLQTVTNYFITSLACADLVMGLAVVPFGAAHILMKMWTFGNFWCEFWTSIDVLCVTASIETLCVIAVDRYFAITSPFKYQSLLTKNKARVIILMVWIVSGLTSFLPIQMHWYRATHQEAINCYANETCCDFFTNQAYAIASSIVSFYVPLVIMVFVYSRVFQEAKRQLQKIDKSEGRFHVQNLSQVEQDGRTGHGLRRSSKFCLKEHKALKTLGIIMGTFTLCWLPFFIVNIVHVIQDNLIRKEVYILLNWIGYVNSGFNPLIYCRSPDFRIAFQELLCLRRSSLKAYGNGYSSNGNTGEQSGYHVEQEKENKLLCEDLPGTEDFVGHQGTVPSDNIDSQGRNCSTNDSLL
Sequence of Nonstructural protein 1 (Q194T2 whole entry): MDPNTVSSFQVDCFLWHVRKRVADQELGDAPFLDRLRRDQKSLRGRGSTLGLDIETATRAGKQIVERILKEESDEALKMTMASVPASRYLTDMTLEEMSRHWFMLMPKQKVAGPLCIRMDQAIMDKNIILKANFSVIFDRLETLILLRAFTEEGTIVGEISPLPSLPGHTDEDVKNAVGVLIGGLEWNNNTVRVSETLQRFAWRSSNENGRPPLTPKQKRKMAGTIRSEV

COc1ccccc1CNC(=O)Cn1c(=O)oc2cc(S(=O)(=O)N3CCCC3)ccc21
EC50 [1]: > 50 µM (active)

COC(=O)c1c(C)[nH]c(C)c1C(=O)c1ccccc1Cc1ccccc1
AC50 [2]: 35.5 µM (inconclusive)

COc1ccc2cc(C(=O)N/N=C/c3cc(OC)c(OC)c(OC)c3)[nH]c2c1
AC50 [3]: 3.83 µM (active)

CCOc1cc(CN2CCCC(CNC(=O)c3ccc(F)cc3)C2)ccc1OC (centres undefined)
EC50 (cells): 0.206 µM (active) | EC50 [4]: < 0.1 µM (active) | EC50 [5]: > 30 µM (not active)

Cc1ccccc1Cn1c(=O)n(CCCC(=O)NCc2ccco2)c(=O)c2ccccc21
EC50 [1]: > 50 µM (active)

CC(=O)Nc1ccc(C(=O)CCl)cc1
AC50 [2]: 28.2 µM (inconclusive)

O=C(Nc1cccc(F)c1)NC1CCCCC1
EC50 [1]: > 50 µM (active)

COC(=O)C1CCN(C2=C(NS(=O)(=O)c3ccc(Cl)cc3)C(=O)c3ccccc3C2=O)CC1
IC50 (Nonstructural protein 1): 27.4 µM (active) | AC50 [6]: 13.1 µM (active)

Cc1ccc(NC(=O)CC2=NC(=O)C(CC(=O)Nc3ccccc3F)S2)cc1 (centres undefined)
AC50 [6]: 19.1 µM (active)

CCC(=O)N1CC[C@@H]2[C@H]1c1cc(-c3cccc(F)c3)ccc1N(C)[C@H]2CO
AC50 [7]: 5.53 µM (active)

Cc1cc([N+](=O)[O-])ccc1N
AC50 [2]: 17.8 µM (inconclusive) | AC50 (Cytochrome P450 3A4): 39.8 µM (inconclusive)

COC(=O)C1=C(c2cccc(OCc3ccccc3)c2)C[C@@H]2CC[C@H]1N2C(=O)NCc1cccc(F)c1
EC50 [8]: 4.8 µM (active)

C[C@H]1CCCCO[C@H](CN(C)C(=O)Nc2cccc3ccccc23)[C@@H](C)CN([C@@H](C)CO)C(=O)c2cc(NS(=O)(=O)c3ccc(F)cc3)ccc2O1
AC50 (Paired box protein Pax-8): 5.88 µM (active) | AC50 [9]: > 70 µM (inactive) | AC50 [10]: 33.8 µM (active)

O=C(Nc1cccnc1)c1ccc(N2CCCC2)c([N+](=O)[O-])c1
AC50 [7]: 1.19 µM (active)

CC1(C)CC23C(=O)CCC(O)C2(C)CCC13 (centres undefined) [3-NOR-3-OXOPANASINSAN-6-OL]
AC50 (Cytochrome P450 3A4): 15.8 µM (inconclusive)

C[C@@H]1CN([C@H](C)CO)C(=O)c2cc(NS(=O)(=O)c3ccc(F)cc3)ccc2O[C@@H](C)CCCCO[C@H]1CN(C)Cc1ccc(C(F)(F)F)cc1
AC50 (Paired box protein Pax-8): 5.54 µM (active) | AC50 [11]: 7.81 µM (active) | AC50 [9]: 33.9 µM (active) | AC50 [10]: 55.1 µM (active)

C/C(CC(C)(C)C1CCCCC1)=N\NC(N)=S
EC50 (cells): 0.133 µM (active) | EC50 [4]: < 0.1 µM (active) | EC50 [12]: 2.86 µM (inconclusive) | EC50 [13]: 2.9 µM (active)

Cc1ccc(-c2cc(C(=O)N3CC(C)CC(C)C3)c3ccccc3n2)o1 (centres undefined)
IC50 [14]: 5.42 µM (active) | IC50 [15]: 11.3 µM (active)

Cc1c(CN(C)C)c2c(n1Cc1ccccc1)C(=O)c1ccccc1-2
AC50 [6]: 8.45 µM (active)

CCOc1ccc(NC(=O)CNC(=O)c2nn(-c3ccc(OC)c(OC)c3)c(=O)c3ccccc23)cc1
EC50 [8]: 6.57 µM (active)

CCCCCOC(=O)c1ccccc1C(=O)OCCCCC
AC50 [2]: 39.8 µM (inconclusive) | AC50 (Cytochrome P450 3A4): 12.6 µM (inconclusive)

COc1ccc(C2CC(=O)N(CCCN(C)CCc3ccc(OC)c(OC)c3)C2)cc1 (centres undefined)
EC50 (cells): 0.02 µM (active) | EC50 [4]: < 0.1 µM (active) | EC50 [5]: > 60 µM (not active)

Cc1ccc(OCC(=O)NNC(=S)NC(=O)C(C)(C)C)c(Br)c1
AC50 [16]: 4.75 µM (active) | EC50 [17]: 4.73 µM (active)

CC(C)CC#Cc1ccc2c(c1)O[C@@H](CN(C)S(=O)(=O)c1ccc(F)cc1)[C@@H](C)CN([C@@H](C)CO)S2(=O)=O
AC50 (Paired box protein Pax-8): 12.9 µM (active) | AC50 [11]: 25.9 µM (active) | AC50 [9]: > 70 µM (inactive) | AC50 [10]: 51.5 µM (active)

CC(C)c1ccc(S(=O)(=O)c2cc3cc(Br)ccc3oc2=O)cc1
EC50 (HEK293 [18]): > 20 µM (inactive) | IC50 (HEK293 [19]): 3.29 µM (active) | IC50 (HEK293 [20]): 3.73 µM (active) | IC50 (HEK293 [21]): 10.5 µM (active)

CC(C)=CCc1c2c(c(O)c3c(=O)c(O)c(-c4ccccc4)oc13)C=CC(C)(C)O2 [SERICETIN]
AC50 (Cytochrome P450 3A4): 15.8 µM (inconclusive)
